Reference: patent EP1635833B1 (priority 2003, dated 2004)
Read-outs that look alike come from different tables or passages of the source.

What was measured:
[1] = system: ricinus oil-induced diarrhea; details: in vivo
[2] = system: opioid-induced PCO2 increases; details: guinea pig, in vivo
[3] = system: opioid-induced PCO2 increases; details: rat, in vivo
[4] = system: ricinus oil-induced diarrhea; details: rat, in vivo
[5] = system: ricinus oil-induced diarrhea; assay: whole plant or invertebrate; details: in Rattus norvegicus, sc, 4 h, read-out: ED50 to postpone the ricinus oil-induced diarrhea
charcoal propulsion [6] = assay: animal or person; type: in vivo, rats; details: Rattus norvegicus, sc, read-out: ED50 for an inhibition of charcoal propulsion (<60 %)
[7] = system: ricinus oil-induced diarrhea; assay: whole plant or invertebrate; details: in Meriones unguiculatus, sc, 8 h, read-out: ED50 to postpone the ricinus oil-induced diarrhea
charcoal propulsion [8] = details: in vivo
[9] = system: opioid-induced PCO2 increases; details: in vivo
[10] = system: acetone-induced lifting behaviour; assay: Tolerance in a chronic neuropathic pain model (CCI gerbils, acetone spray test); type: in vivo; details: 11 days

## CN1CC[C@]23c4c5ccc(O)c4O[C@H]2[C@@H](O)C=C[C@H]3[C@H]1C5 [Morphine, morphine]
[1]
  inhibition of the ricinus oil -induced diarrhea: dose-dependent inhibition
[2]; sc
  PCO2: increase in PCO2
[3]
  levels of Pco2: increased levels of Pco2
[4]
  inhibition of the ricinus oil -induced diarrhea: dose-dependent inhibition
morphine-induced emesis; in vivo, ip
  doses causing central side-effects: > 0.8 mg/kg
[5]
  ED50: 2.19 mg/kg
Charcoal propulsion [6]
  ED50: 1.66 mg/kg

## COc1ccc2c3c1O[C@H]1[C@@H](O)C=C[C@H]4[C@@H](C2)N(C)CC[C@@]341 [Codeine, codeine]
[1]
  inhibition of the ricinus oil -induced diarrhea: dose-dependent inhibition
[7]
  ED50: 1.67 mg/kg

## COc1ccc2c3c1O[C@H]1C(=O)CC[C@@]4(O)[C@@H](C2)N(C)CC[C@]314 [Oxycodone, oxycodone]
[1]
  inhibition of the ricinus oil -induced diarrhea: dose-dependent inhibition

## Cc1cccc(C)c1NC(=O)CN1CCN(C2CCN(C(=O)c3cc(C(F)(F)F)cc(C(F)(F)F)c3)C(Cc3ccccc3)C2)CC1 (single isomer, unassigned; (+)) [Compound 95, (+)-(B)-trans-4-[1-[3,5-bis(trifluoromethyl)benzoyl]-2-(phenylmethyl)-4-piperidinyl]-N-(2,6-dimethylphenyl)-1-piperazine acetamide, (L)-malic acid (1:1)]
[1]
  effect of adding Compound 95 on the ED50s of the opioids: did not alter
  effects on constipation: minimal effects
[2]
  PCO2 values: did not affect PCO2 values
  opioid-induced PCO2 levels: reductions in the opioid-induced PCO2 levels
Charcoal propulsion [8]
  effect of adding Compound 95 on the outcome of the opioids: did not affect the outcome of the opioids
  inhibition of the charcoal propulsion: inactive
[3]
  number of animals reaching high (>50 mm Hg) levels of PCO2: reduced
[3]; sc, 40 mg/kg
  PCO2 levels: did not affect the PCO2 levels
[4]
  effect of adding Compound 95 on the ED50s of the opioids: did not alter
  effects on constipation: minimal effects
[9]
  PCO2 values: no effects were observed
  opioid-induced PCO2 levels: significant decreases
morphine-induced emesis; at 0.4 mg/kg morphine (submaximal dose)
  reduction of the frequency of retches, vomiting and periods of emesis: non-significant tendency
morphine-induced emesis; at 0.8 mg/kg morphine
  doses with activity on periods of emesis: ≥ 2.5 mg/kg
morphine-induced emesis; at 0.8 mg/kg morphine, 10 mg/kg Compound 95 i.p.
  number (frequency) of vomits: diminished significantly
morphine-induced emesis; at 0.8 mg/kg morphine, doses of 10 and 40 mg/kg i.p. Compound 95
  number of retches: significantly reduced
[10]; 2.5 mg/kg Compound 95 i.p. twice daily alone
  acetone-induced lifting behaviour: limited activity
[10]; 2.5 mg/kg Compound 95 with 2.5 mg/kg morphine i.p. twice daily
  acetone-induced lifting behaviour, activity over time: the activity remained present over the entire testing period
